Converted amounts (≈) assume the structure as drawn. “And” between values parts separate entries of the source, which are not always exact repeats. Equal values may be shown once. Read-outs that look alike come from different tables or passages of the source. Each block holds one molecule with its values, some of them ahead of it.
Columns and labels:
[1] = system: MCF7 cell line; test: SRB cytotoxicity assay, MCF7 breast cancer cell line; conditions: Homo sapiens, MCF7, 72 h, read-out: Cytotoxicity IC50 value, MCF7 cell line
Experimental: (§1) All reagents and chemicals of analytical grade were obtained from Sigma (Dorset, UK); unless stated otherwise. All chemicals, reagents and solvents (of analytical grade) were used directly without further purification. MCF7 cell line ATCC® HTB-22™, T47D cell line ATCC® HTB-133™, K562 cell line ATCC® CCL-243™, Panc1 cell line ATCC® CRL-1469™. A375.S2 cell line ATCC® CRL-1872™, A549 cell line ATCC® CCL-185™, HELA cell line ATCC® CCL-2™ were cultured in Dulbecco’s modified eagle’s medium (DMEM). (DMEM) containing foetal bovine serum (FBS) (Bio Whittaker, Verviers, Belgium), 4-(2-hydroxyethyl)-1-piperazine ethane sulfonic acid (HEPES) Buffer, L-glutamine, gentamicin, penicillin, and streptomycin sulphate (Sigma, St. Luis, MO, USA), trypsin, trypan blue, Ciprofloxacin HCl from Aarti drugs Ltd/India, was a kind gift from Pharma International Company- Amman; Fluconazole from Neopharma, United Arab Emirates, a kind gift from Pharmaceutical Research Unit, Amman; Trypon soya agar (TSA), trypon soya broth (TSB), sabouraud dextrose agar (SDA) were obtained from Liofilchem (Italy) or Oxoid LTD (Basingstoke, England), they were reconstituted and sterilized by autoclave at 121 °C for 15 min.
(§2) The cytotoxicity measurements were determined using Sulforhodamine B (SRB) colorimetric assay for cytotoxicity screening. The mechanism of reduction of cell viability was adopted as described previously (Arabiyat et al., 2016a,b; 2017; Alabsi et al., 2018; Jumah, 2018; AlShahrabi et al., 2020). Human periodontal ligament fibroblasts (PDL) are a primary normal cell culture for verification of selective cytotoxicity. […] Selectivity ratio as indicative factor of the safety of compounds was calculated by dividing IC50 of tested compound on normal fibroblasts by IC50 of the same compound on specific pathological cell line (Hoffman et al., 2011).

[2] = system: A549 cell line; test: SRB cytotoxicity assay, A549 lung cancer cell line; conditions: Homo sapiens, A549, 72 h, read-out: Cytotoxicity IC50 value, A549 cell line
Experimental: as §1, §2

[3] = system: T47D cell line; test: cells; conditions: Homo sapiens, T47D, 72 h, read-out: Cytotoxicity IC50 value, T47D cell line
Experimental: as §1, §2

[4] = system: K562 cell line; test: SRB cytotoxicity assay, K562 leukaemia cell line; conditions: Homo sapiens, K562, 72 h
Experimental: as §1, §2

[5] = system: PANC 1 cell line; test: SRB cytotoxicity assay, PANC 1 pancreatic cancer cell line; conditions: Homo sapiens, PANC-1, 72 h, read-out: Cytotoxicity IC50 value, PANC 1 cell line
Experimental: as §1, §2

[6] = system: A375.S2 cell line; test: SRB cytotoxicity assay, A375.S2 melanoma cell line; conditions: Homo sapiens, A375-S2, 72 h, read-out: Cytotoxicity IC50 value, A375.S2 cell line
Experimental: as §1, §2

[7] = system: Staphylococcus aureus (S. aureus) ATCC 6538; test: Quantitative antimicrobial assessment (MIC) against S. aureus; type: cell-based; conditions: for Antibacterial activity (in words): esters vs free acid, Gram positive strain context; for MIC: Staphylococcus aureus, ATCC6538, Gram positive, ATCC 6538; for MIC potency compared with ciprofloxacin, S. aureus: in words
[8] = system: HELA cell line; test: SRB cytotoxicity assay, HELA cervical cancer cell line; conditions: Homo sapiens, HeLa, 72 h
Experimental: as §1, §2

[9] = system: PDL Fibroblasts; test: SRB cytotoxicity on normal periodontal ligament fibroblasts, selective cytotoxicity; type: cell-based, Human; conditions: for IC50: Homo sapiens, Fibroblast, normal fibroblasts, SRB, 72 h, mean ± SD; for Selectivity index SI (A375.S2): IC50 on PDL fibroblasts divided by IC50 on A375.S2; for Selectivity index SI (K562): IC50 on PDL fibroblasts divided by IC50 on K562
Experimental: as §2

[10] = read-out: Cytotoxicity IC50 value, K562 cell line, SRB, 72 h, 0.1-200 μg/mL range, mean ± SD, NI = lack of cytotoxicity in range
[11] = read-out: Cytotoxicity IC50 value, HELA cell line, SRB, 72 h, 0.1-200 μg/mL range, mean ± SD, value in brackets
[12] = read-out: Cytotoxicity IC50 value, HELA cell line, SRB, 72 h, 0.1-200 μg/mL range, mean ± SD, NI = lack of cytotoxicity in range
[13] = read-out: Cytotoxicity IC50 value, K562 cell line, SRB, 72 h, 0.1-200 μg/mL range, mean ± SD, value in brackets
[14] = 0.1-200 μg/mL range, NI = lack of cytotoxicity in range

SMILES: O=C(O)c1cn(C2CC2)c2c([N+](=O)[O-])c(Cl)c(F)cc2c1=O [1A]
IC50 [1]: 3.32 µM and 1.17 µg/mL
IC50 [2]: 57.9 µM and 20.4 µg/mL
IC50 [3]: > 200 µg/mL
IC50 [4, 10]: > 200 µg/mL
IC50 [5]: 59.1 µM and 21 µg/mL
IC50 [6]: 10 µM and 3.52 µg/mL
Antibacterial activity (in words) [7]: incomparably appreciable activity
IC50 [8, 11]: 7.02 µg/mL
IC50 [8, 12]: 19.8 ± 1.48 µM

SMILES: CCOC(=O)c1cn(C2CC2)c2c([N+](=O)[O-])c(Nc3ccccc3OC)c(F)cc2c1=O [2A]
Antibacterial activity (in words) [7]: lacked antibacterial activity

SMILES: CCOC(=O)c1cn(C2CC2)c2c([N+](=O)[O-])c(Nc3ccc(F)cc3)c(F)cc2c1=O [2H]
IC50 [1]: > 200 µg/mL
IC50 [2]: 447 µM and 200 µg/mL
IC50 [3]: 833 µM and 344 µg/mL
IC50 [4, 13]: 346 µg/mL
IC50 [4, 10]: 806 ± 59.2 µM
IC50 [5]: 485 µM and 208 µg/mL
IC50 [6]: 271 µM and 121 µg/mL
Antibacterial activity (in words) [7]: lacked antibacterial activity
IC50 [8, 11]: 647 µg/mL
IC50 [8, 12]: 1510 ± 68.2 µM
IC50 [9, 14]: 560 ± 87.5 µM
IC50 ([9]; value in brackets): 231 µg/mL
Selectivity index SI (A375.S2) [9]: 2.07

SMILES: COc1cccc(Nc2c(F)cc3c(=O)c(C(=O)O)cn(C4CC4)c3c2N)c1 [4b, 8-amino-1-cyclopropyl-6-fluoro-7-(3-methoxy-phenylamino)-4-oxo-1,4-dihydro-quinoline-3-carboxylic acid]
IC50 [1]: 177 µM and 67.7 µg/mL
IC50 [2]: 229 µM and 87.6 µg/mL
IC50 [3]: 149 µM and 57.2 µg/mL
IC50 [4, 13]: 6.5 µg/mL
IC50 [4, 10]: 17 ± 2.57 µM
IC50 [5]: 155 µM and 59.2 µg/mL
IC50 [6]: 120 µM and 46 µg/mL
MIC [7]: 0.024 µM (≈ 9.2 ng/mL)
IC50 [9, 14]: 276 ± 20.2 µM
IC50 ([9]; value in brackets): 106 µg/mL
Selectivity index SI (K562) [9]: 16.25

SMILES: COc1ccc(Nc2c(F)cc3c(=O)c(C(=O)O)cn(C4CC4)c3c2N)c(OC)c1 [4g, 8-amino-1-cyclopropyl-7-(2,4-dimethoxy-phenylamino)-6-fluoro-4-oxo-1,4-dihydro-quinoline-3-carboxylic acid]
IC50 [1]: 317 µM and 137 µg/mL
IC50 [2]: 709 µM and 306 µg/mL
IC50 [3]: 1.01 mM and 435 µg/mL
IC50 [4, 10]: > 200 µg/mL
IC50 [5]: 310 µM and 128 µg/mL
IC50 [6]: 807 µM and 348 µg/mL
MIC [7]: 0.004 µM (≈ 1.65 ng/mL)
MIC potency compared with ciprofloxacin, S. aureus [7]: significantly more potent than ciprofloxacin
IC50 [8, 11]: 120 µg/mL
IC50 [8, 12]: 277 ± 39 µM
IC50 [9, 14]: > 200 µg/mL

SMILES: COc1ccccc1-n1nnc2c3c(cc(F)c21)c(=O)c(C(=O)O)cn3C1CC1 [5a, 9-cyclopropyl-4-fluoro-3-(2-methoxy-phenyl)-6-oxo-6,9-dihydro-3H-[1,2, and 3] triazolo [4,5-h] quinoline-7-carboxylic acid]
IC50 [1]: 44.3 µM and 17.4 µg/mL
IC50 [2]: > 200 µg/mL
IC50 [3]: 42.1 µM and 16.6 µg/mL
IC50 [4, 13]: 16.4 µg/mL
IC50 [4, 10]: 41.7 ± 6.86 µM
IC50 [5]: 201 µM and 78.9 µg/mL
IC50 [6]: 171 µM and 67.2 µg/mL
MIC potency compared with ciprofloxacin, S. aureus [7]: significantly more potent than ciprofloxacin
IC50 [8, 11]: 124 µg/mL
IC50 [8, 12]: 299 ± 11.4 µM
IC50 [9, 14]: 279 ± 27.4 µM
IC50 ([9]; value in brackets): 110 µg/mL
Selectivity index SI (K562) [9]: 6.71

SMILES: CCc1ccc(-n2nnc3c4c(cc(F)c32)c(=O)c(C(=O)O)cn4C2CC2)cc1 [5d, 9-cyclopropyl-4-fluoro-3-(4-ethyl-phenyl)-6-oxo-6,9-dihydro-3H-[1,2,3] triazolo[4,5-h]quinoline-7-carboxylic acid]
IC50 [1]: 177 µM and 69.1 µg/mL
IC50 [2]: 161 µM and 63 µg/mL
IC50 [3]: 372 µM and 146 µg/mL
IC50 [4, 13]: 63.8 µg/mL
IC50 [4, 10]: 163 ± 22.6 µM
IC50 [5]: 163 µM and 63.8 µg/mL
IC50 [6]: 124 µM and 48.5 µg/mL
MIC potency compared with ciprofloxacin, S. aureus [7]: significantly more potent than ciprofloxacin
IC50 [8, 11]: 447 µg/mL
IC50 [8, 12]: 1140 ± 82.4 µM
IC50 [9, 14]: 165 ± 16.1 µM
IC50 ([9]; value in brackets): 64.5 µg/mL
Selectivity index SI (A375.S2) [9]: 1.33

SMILES: CCn1cc(C(=O)O)c(=O)c2cc(F)c(Nc3ccccc3OC)c([N+](=O)[O-])c21 [11a, 1-ethyl-6-fluoro-7-(2-methoxy-phenylamino)-8-nitro-4-oxo-1,4-dihydro-quinoline-3 carboxylic acid]
IC50 [1]: 67.8 µM and 27.2 µg/mL
IC50 [2]: 96.8 µM and 8.84 µg/mL
IC50 [3]: 22.8 µM and 9.16 µg/mL
IC50 [4, 13]: 6.38 µg/mL
IC50 [4, 10]: 15.9 ± 1.75 µM
IC50 [5]: 187 µM and 75.2 µg/mL
IC50 [6]: 1.02 mM and 411 µg/mL
IC50 [8, 11]: 41.4 µg/mL
IC50 [8, 12]: 103 ± 7.66 µM
IC50 [9, 14]: 156 ± 11.7 µM
IC50 ([9]; value in brackets): 62.7 µg/mL
Selectivity index SI (K562) [9]: 9.83

SMILES: CCn1cc(C(=O)O)c(=O)c2cc(F)c(Nc3cccc(OC)c3)c([N+](=O)[O-])c21 [11b, 1-ethyl-6-fluoro-7-(3-methoxy-phenylamino)-8-nitro-4-oxo-1,4-dihydro-quinoline-3-carboxylic acid]
IC50 [1]: > 200 µg/mL
IC50 [2]: > 200 µg/mL
IC50 [3]: > 200 µg/mL
IC50 [4, 13]: 23.3 µg/mL
IC50 [4, 10]: 58 ± 9.12 µM
IC50 [5]: > 200 µg/mL
IC50 [6]: > 200 µg/mL
IC50 [8, 11]: 79 µg/mL
IC50 [8, 12]: 197 ± 38.3 µM
IC50 [9, 14]: > 200 µg/mL

SMILES: CCn1cc(C(=O)O)c(=O)c2cc(F)c(Nc3ccc(OC)cc3OC)c([N+](=O)[O-])c21 [11c, 7-(2,4-dimethoxy-phenylamino)-1-ethyl-6-fluoro-8-nitro-4-oxo-1,4-dihydro-quinoline-3-carboxylic acid]
IC50 [1]: > 200 µg/mL
IC50 [2]: > 200 µg/mL
IC50 [3]: 431 µM and 186 µg/mL
IC50 [4, 10]: > 200 µg/mL
IC50 [5]: 124 µM and 53.3 µg/mL
IC50 [6]: > 200 µg/mL
IC50 [8, 12]: > 200 µg/mL
IC50 [9, 14]: 285 ± 28.7 µM
IC50 ([9]; value in brackets): 123 µg/mL
Selectivity index SI (PANC 1) ([9]; IC50 on PDL fibroblasts divided by IC50 on PANC 1): 2.31

SMILES: CCn1cc(C(=O)O)c(=O)c2cc(F)c(Nc3ccccc3OC)c(N)c21 [12a, 8-amino-1-ethyl-6-fluoro-7-(2-methoxy-phenylamino)-4-oxo-1,4-dihydro-quinoline-3-carboxylic acid]
IC50 [1]: 125 µM and 46.5 µg/mL
IC50 [2]: > 200 µg/mL
IC50 [3]: 83.5 µM and 31 µg/mL
IC50 [4, 13]: 7.79 µg/mL
IC50 [4, 10]: 21 ± 0.62 µM
IC50 [5]: 142 µM and 52.6 µg/mL
IC50 [6]: 373 µM and 138 µg/mL
IC50 [8, 11]: 9.45 µg/mL
IC50 [8, 12]: 25.4 ± 3.92 µM
IC50 [9, 14]: 170 ± 15.1 µM
IC50 ([9]; value in brackets): 63.2 µg/mL
Selectivity index SI (K562) [9]: 8.10

SMILES: CCn1cc(C(=O)O)c(=O)c2cc(F)c(Nc3cccc(OC)c3)c(N)c21 [12b, 8-amino-1-ethyl-6-fluoro-7-(3-methoxy-phenylamino)-4-oxo-1,4-dihydro-quinoline-3-carboxylic acid]
IC50 [1]: 492 µM and 183 µg/mL
IC50 [2]: 163 µM and 60.4 µg/mL
IC50 [3]: 169 µM and 62.7 µg/mL
IC50 [4, 13]: 13.2 µg/mL
IC50 [4, 10]: 35.4 ± 3.8 µM
IC50 [5]: 35.4 µM and 13.2 µg/mL
IC50 [6]: 112 µM and 41.7 µg/mL
IC50 [8, 11]: 83.6 µg/mL
IC50 [8, 12]: 225 ± 34 µM
IC50 [9, 14]: 150 ± 6.73 µM
IC50 ([9]; value in brackets): 55.5 µg/mL
Selectivity index SI (K562) [9]: 4.22

MIC [7]: 1.12 µM (≈ 371 ng/mL)
SMILES: O=C(O)c1cn(C2CC2)c2cc(N3CCNCC3)c(F)cc2c1=O [ciprofloxacin, reference compound]

— paper PMC8325119, “A Novel Class of Functionalized Synthetic Fluoroquinolones with Dual Antiproliferative - Antimicrobial Capacities” (Asian Pacific Journal of Cancer Prevention : APJCP, 2021)
